# Laboratory results reported in a melting point compilation (Tetko et al.; mined from patent text by program, amines drawn as free bases though some values may be those of a salt).
row,SMILES,melting point
1,Cc1ccc(C(=O)C2=C(O)C(=O)N(c3ccc(C)nn3)C2c2cccc(OC(C)C)c2)cc1 (stereo not drawn),243 to 245 °C
2,CCOC1CC2(C)C(CCC3C4CCC(C(=O)OC)C4(C)CC(NCCC(C)C)C32)CC1O (stereo not drawn),122 to 124 °C
3,COc1ccc2c(c1)CC(=O)N2C,93 to 94 °C
4,Brc1ccc(Nc2ncc3cc4ccccc4n3n2)cc1,237 to 243 °C
5,COc1cccc2c1C(C)C(=O)N2C (stereo not drawn),73 to 74 °C
6,Cc1cc(N(C)N)nnc1-c1ccc(C#N)cc1,149 to 152 °C
7,COc1cc(F)ccc1C(O)C1CCCCn2c1nc(-c1ccncn1)cc2=O (racemic),235 to 237 °C
8,CC(C)C1NC(=O)CN1C(=O)CN (stereo not drawn),141 to 143 °C
9,CCOC(=O)C(C)c1cc(C(C)(C)C)c(O)c(C(C)(C)C)c1 (stereo not drawn),54 to 56 °C
10,COc1ccc(-c2cc(C)c(C(=O)NCCCCc3cccnc3)c(C)c2)cc1OC,117 to 119 °C
11,Cc1c(N2CC[C@@H](N)[C@H](C)C2)c(F)cc2c(=O)c(C(=O)O)cn(C3CC3)c12 (relative stereo),223 to 225 °C
12,COC(=O)C(=O)c1nccn1Cc1cccs1,72.5 to 74.5 °C
13,N#Cc1cc2ccc(Cl)cc2[nH]c1=O,306 to 309 °C
14,CCN(C)c1nsc(NC(=O)NC)c1C(N)=O,165 to 168 °C
15,CCCCC1c2ccccc2-c2cc(Br)ccc2N1S(=O)(=O)c1ccc(OC)cc1 (stereo not drawn),108 to 111 °C
16,CCOC(=O)c1c(CC(=O)O)n(-c2ccc(OC(C)C)cc2)c2ccc(Oc3ccc(CCl)cn3)cc12,153 to 155 °C
17,C=CCOc1cc(-c2nn3c(c2Cl)CCCC3)c(F)cc1Cl,91 to 92 °C
18,CCCn1nc(Cc2ccc(-c3ccccc3S(=O)(=O)NC(=O)c3ccccc3)cc2)c(C(=O)O)c1Cc1ccccc1,105 to 109 °C
19,Cc1cccnc1-n1c(=S)nc2c(C)cccn2c1=S,131 to 132 °C
20,O=C(Nc1cccnc1)N1CCN(c2nccc(-c3cccc(F)c3)n2)CC1,210 to 211 °C
21,CC(=O)NCc1ccc(CN2CCN(c3ccc(F)cc3F)CC2)cc1,94 to 95 °C
22,CC(C)(C)C(NC(=O)c1ccc(Cl)cc1F)NC(=NC#N)Nc1cccnc1 (stereo not drawn),183 to 184 °C
23,CC(C)(C)c1ccc(-c2ccc(COc3cccc4cc(NS(=O)(=O)C(F)(F)F)ccc34)c(F)c2)cc1,162 to 164 °C
24,N#CC1=C(C2CCCCC2)Nc2n[nH]cc2C1c1cccc(C#N)c1Br (stereo not drawn),193 °C
25,Cn1nc(-c2c(F)cccc2F)nc1-c1ccc(OCc2ccc(C(F)(F)F)cc2)c(Cl)c1,171 to 177 °C

row,SMILES,melting point
1,O=C(c1ccc(Cl)cc1)c1ccc2nc(Cl)cc(CCc3cccc(Cl)c3)c2c1,180 °C
2,CNC(=O)N1C[C@@H](Oc2cccc(C(F)(F)F)c2)[C@@H]1C (relative stereo),89 to 91 °C
3,O=C(O)c1cc(=O)c(-c2ccc(OCc3ccccc3)c(OCc3ccccc3)c2)co1,206 to 208 °C
4,COC(Cc1c(Br)cc(Br)c(C(N)=O)c1Br)C(=O)O (stereo not drawn),138 to 139 °C
5,CC1(C)CC(OC(=O)CCCCCCCCC(=O)OC2CC(C)(C)N(OC3CCCCC3)C(C)(C)C2)CC(C)(C)N1OC1CCCCC1,56 to 59 °C
6,Cn1c(=O)c2c(ncn2CC(=O)Nc2ccc(-n3nc(C(F)(F)F)cc3C3CC3)cc2)n(C)c1=O,178 to 184 °C
7,CCN1C(=O)C(C)(C)C(=O)N(C)c2cc(CN(CCn3cc(C)c4occc4c3=O)Cc3cncn3C)ccc21,100 to 105 °C
8,CC(C)(C)C(=O)c1c(CC(C)(C)C(=O)O)n(Cc2ccc(Cl)cc2)c2ccc(OCc3ccc4sccc4n3)cc12,193 to 194 °C
9,CCc1[nH]n(C2CCCC2)c2nc(-c3ccccc3OCC(=O)O)nc(=O)c1-2,208 to 209 °C
10,O=[N+]([O-])c1cnn2c1NCCC2,251 to 252 °C
11,COC1(c2cc(F)cc(Sc3ccc(C(C)=O)cn3)c2)CCOCC1,73 to 74 °C
12,COc1cc2c(cc1F)C1(CO2)C(=O)N(Cc2ccccn2)c2ccccc21 (stereo not drawn),142 to 144 °C
13,Nc1scc(CN2CCN(c3ccccc3)CC2)c1C(=O)c1ccc(Cl)cc1,112 °C
14,COc1ccc(C2CCC(OC(C)=O)CC2NC(=O)c2ccc(OCC3CC3)c(OCC3CC3)c2)cc1OC (stereo not drawn),90 to 95 °C
15,Ic1cccc2cc3ccccc3cc12,152 to 154 °C
16,CC(=O)c1c(C)c2c(c(C)c1O)OC(C)(C)C(C)C2 (stereo not drawn),87 to 90 °C
17,CS(=O)CC(C)(C)NC(=O)c1c(I)cccc1-c1ccc(C(F)(F)F)cc1 (stereo not drawn),155 to 158 °C
18,Nc1c(Cl)cc(Cl)c(CCC(=O)O)c1Cl,145 °C
19,C=C(Cn1ccnc1)c1ccccc1O,139 to 141 °C
20,COc1cc(NS(=O)(=O)c2ccc(N3CCNC3=O)cc2)cc(OC)c1OC,233 to 235 °C
21,Cc1ccccc1-c1nc2ccccc2n1Cc1c(F)cccc1F,139 °C
22,Cc1c(C#N)sc2nc(-c3ccc(Cl)cc3)nc(N3CCN(C)CC3)c12,209 to 210 °C
23,Cc1cc(N2CCN(C(=O)c3ccc(Nc4ccnc5cc(C(F)(F)F)ccc45)cc3)CC2)nc(N)n1,283 to 286 °C
24,CCOC(=O)c1c(Cn2cncn2)nc2sc3c(c2c1-c1ccc(OC)c(OC)c1)CN(C(=O)OCc1ccccc1)CC3,169 to 170 °C
25,CCCCCCCCCCCCS(=O)(=O)NN(C(=O)c1ccccc1)c1cc(Cl)c(C)cc1O,124 to 125 °C

row,SMILES,melting point
1,CCn1cc(C(=O)O)c(=O)c2cc(F)c(N3CCC(N(C)C)CC3)c(F)c21,210 to 211 °C
2,CSc1cc(C=O)nn1C,47 to 48 °C
3,CCOc1cc(O)c2cc(F)c(F)c(F)c2n1,171 °C
4,O=[N+]([O-])c1ccccc1S(=O)(=O)c1ccccc1,145 to 146 °C
5,C/C(=C(\C#N)C(N)=S)N1CCC(C)CC1,156 to 159 °C
6,COc1ccc(-c2csc(Nc3cc(OC)ccc3OC)n2)cc1,104 °C
7,Cc1cccc2c(-c3ccc(Cl)cc3)onc12,134 to 136 °C
8,CSc1ccc(-c2coc3ccc(-c4nnc([C@H](C)O)o4)cc23)cc1,164 to 165 °C
9,Cn1c(CC(=O)O)ccc1C(=O)c1ccc(Br)cc1,188 °C
10,Cc1c(OCC(=O)O)ccc(-c2noc3ccccc23)c1C,146 to 152 °C
11,O=C1c2ccccc2CCC1C(=O)C(F)(F)F (stereo not drawn),48 to 49 °C
12,CCOc1cc2c(cn1)[nH]c1ccccc12,130 to 133 °C
13,Cc1nc(OC(C)C)nc(C)c1N1CCCn2c1nc1c(Cl)ccc(C(OC(F)F)C(F)(F)F)c12 (stereo not drawn),227 to 230 °C
14,O/N=C\c1cccc(Cl)c1,64 to 66 °C
15,COC(=O)C1(n2c(=O)c3ccccc3n(CCCCBr)c2=O)CCCC1,96 to 98 °C
16,NC(=O)C=Cc1ccc(N)cc1,200 °C
17,O=c1ccn(-c2cccc(C(F)(F)F)c2)nc1-c1ccsc1-c1ccccc1,167 to 168 °C
18,COC(CC1=C(C#N)C(c2cccc3nonc23)c2c[nH]nc2N1)OC (stereo not drawn),115 °C
19,CCc1sc2ncnc(N)c2c1-c1ccc(NC(=O)c2ccccc2)cc1,213 to 214 °C
20,CCOC(=O)c1cn(CCCO)c(=O)c2cc(Cl)ccc12,193 °C
21,C=CC[C@H]1C(=O)N(S(=O)(=O)c2cc3ccccc3s2)[C@@H]2CCN(C(=O)OCc3ccccc3)[C@H]21 (relative stereo),146 °C
22,O=c1c2cc(Cl)ccc2ncn1CCCN1CCC(c2c[nH]c3ccccc23)CC1,138 °C
23,COc1cccc2cc(CNCCNC(=O)C(C)(C)C)oc12,81 to 82 °C
24,COc1cc(OC)c(-c2cccs2)cc1C#CC(=O)c1cc(OC)c(OCC(=O)O)c(OC)c1,192 to 194 °C
25,c1ccc(COc2cccc(CCCn3ccnn3)c2)cc1,74 to 75 °C

row,SMILES,melting point
1,NC(=O)c1ccc2nc3sc(-c4ccccc4)cc3c(=O)n2c1,348 to 352 °C
2,NC(=O)NCc1ccc(CNC(=O)[C@@H](CCCNC(N)=N[N+](=O)[O-])NC(=O)Cc2ccc(O)cc2)cc1,168 to 170 °C
3,Cc1cccc2sc(Sc3ccc4c(c3)CC[C@H]3N(C)C(=O)CC[C@]43C)nc12,134 to 142 °C
4,O=C(O)c1ccc(C(=O)O)c(Cl)c1,313 °C
5,O=[N+]([O-])c1cc(F)ccc1N1CCc2ccccc21,87 to 89 °C
6,CCCn1c(COCC)nc2c(N)nc3ccc(OC(=O)N4CCOCC4)cc3c21,193 to 196 °C
7,O=Cc1cc2ccsc2c2ccccc12,96 to 96.5 °C
8,CCCNC(=O)CC1(C)Cc2c(C)c(N3CCN(c4ccc(OC)cc4)CC3)c(C)c(C)c2O1 (stereo not drawn),135 to 138 °C
9,O=C(O)CSc1ccc(/C=C/C(=O)NCc2cccnc2)cc1,160 to 161 °C
10,CCOC(C#CC(=NC(c1ccccc1)(c1ccccc1)c1ccccc1)C(F)F)OCC,173 to 175 °C
11,CON=CC1=CCCN(C(=O)OCC(N)=O)C1,131 to 133 °C
12,OC1CCN(c2ccccc2)C12CCNCC2 (racemic),141 to 144 °C
13,O=C1Nc2cc(Cl)cc(Cl)c2C1c1cc(Cl)ccc1O (stereo not drawn),238 to 240 °C
14,Cc1csc2ncc(C(O)CCc3ccc(Br)cc3)n12 (stereo not drawn),175 to 178 °C
15,NC(=O)c1cnc2c(F)c(F)ccc2c1,250 °C
16,CC(C)[C@H](NC(=O)CC[C@H](C)CNC(=O)Cc1ccccc1)[C@@H](O)c1c(-c2ccccc2)c1=O,152 to 154 °C
17,Cc1noc(NS(=O)(=O)c2ccccc2-c2ccc(-c3ncco3)cc2CN(C)C(=O)C2CC2)c1C,92 to 102 °C
18,O=C(NCc1ccc(Cl)cc1)c1cn2c(CO)cc3cc(CC4CCOCC4)cc(c1=O)c32,71 to 74 °C
19,Cc1cccc(-c2[nH]c(C(C)C)nc2-c2ccc(F)c(-c3ncc[nH]3)c2)n1,201 to 205 °C
20,C=CCNC(=O)NC(=O)c1c(Cl)cccc1[Si](C)(C)C,68 to 71 °C
21,CC(C)(C)OC(=O)[C@@H]1CCCN2C(=O)CC[C@H](NC(=O)OCC3c4ccccc4-c4ccccc43)C(=O)N12,190 to 192 °C
22,CCOC(=O)C(Cc1c[nH]c2c(C(=O)c3ccc(Cl)cc3)cccc12)C(=O)OCC,197 to 201 °C
23,C=CCNC1=NS(=O)(=O)N=C1NCCSCc1ccc(CN(C)C)o1,83 to 86 °C
